Data set [1] has as its target T1, human α1H T-type channels (Homo sapiens, UniProt O95180).
T1 construct: expressed in transfected cells; host or cells: HEK 293
Briefly: T-type calcium channel block, whole cell patch clamp in HEK cells (α1H). The class given is cell-based. Particulars: HEK cells, patch clamp, mainly non-inactivated protocol; values above 10 μM shown as 10 μM; read-out: T-type Calcium Channel Block α1H IC50. A general note: Patch clamp records ionic current or voltage across a cell membrane.

Data set [2] deals with absence seizures in GAERS rats. The data set is described as follows: GAERS (Genetic Absence Epilepsy Rats from Strasbourg) epilepsy model, EEG spike and wave discharges. Type of data set: in vivo, rat. Particulars: IP 30 mg/kg. An excerpt: The GAERS (Genetic Absence Epilepsy Rats from Strasbourg) is noted for its long and frequently recurring absence seizure episodes. […] Eight female GAERS rats, bred in the Ludwig Institute for Cancer Research, were used for this study. Rats weighed between 180 and 250 g and aged between 18 and 26 weeks at the start of the experiment.
Electrodes were made in our laboratory by soldering together gold-plated sockets (220-S02 Ginder Scientific, VA, Canada), stainless steel teflon coated wire (SDR clinical technology, NSW, Australia) and a small stainless steel screw (1.4×3 mm, Mr. Specks, Australia). Animals were anaethetised with inhalation of Isoflurane in equal parts of medical air and oxygen (5% induction, 2.5-1.5% maintenance) or alternatively by intraperitoneal injection with xylazine (10 mg/kg) and ketamine (75 mg/kg). The animals were fixated in a stereotaxic frame by means of ear bars. A midline incision on the scalp was made, skin and connective tissue was scraped and pushed laterally to expose underlying skull. 6 holes were drilled bilaterally, 2 in the frontal bone and 4 in the parietal bone, approximately 2 mm anterior to bregma, and 4 and 10 mm posterior to bregma. 6 electrodes were implanted in the holes, and gold-plated sockets were clipped into 9-pin ABS plug (GS09PLG-220, Ginder Scientific, Canada). 2 two side-anchoring screws were placed laterally into skull to improve strength of cap fixation, then caps were held in place with dental cement.
Post-operatively, animals were given the analgesic Rimadyl (4 mg/kg), placed in their cages on a heat mat, and observed until recovery. Rats were caged separately throughout the study, weighed and health-checked daily, and were allowed 7 days to recover prior to commencement of the experimental procedures. Rats were allowed free access to rodent chow (brand, WA stock feeders) and water under 12:12 light dark conditions in the Biological Research Facility of the Department of Medicine (RMH).
Prior to first drug treatment, rats were tested for absence-type seizures, which are accompanied by generalised spike and wave discharges (SWD) on an EEG recording. Testing, and all further experiments were performed in a quiet, well lit room with rats in their home cages. Rats were connected via 6-channel wire cables, which were cut and soldered to 6 gold-plated pins inserted into a 9 pin socket. Cables were connected to a computer running Compumedics™ EEG acquisition software (Melbourne, Australia). […] On week 1, day 1 after the acclimation period following surgical implantation of subdural electrodes, 4 animals (#1-4) were habituated with the cable connected for 15 minutes, then had their SWDs recorded for 60 minutes as baseline. Immediately following baseline, rats were given one of the test, reference or control articles according to the treatment schedule, and target period was recorded from 15 after injection for 120 minutes. Animals were monitored throughout the experiment, and were kept quietly wakeful during baseline and target periods
The seizure expression for the 60 minutes pre-injection and 120 minutes post-injection EEG recording (starting 15 minutes post-drug administration) was quantified by marking the start and finish of the burst of SWDs. This was done with the assistance of SWCFinder® software which has been custom designed to quantitate GAERS seizures, and researchers were blinded to the nature of the drug administered, whereby the analysis was performed blinded. Standard criteria for GAERS seizures is an SWD burst of amplitude of more than three times baseline, a frequency of 7 to 12 Hz, and a duration of longer than 0.5 s. From this, the total percent time spent in seizure over the 120 minutes post-injection EEG recording was determined (percentage time in seizure) as the primary outcome variable.

The target in data set [3] is T2, human α1G T-type channels (Homo sapiens, UniProt O43497).
T2 construct: expressed in transfected cells; host or cells: HEK 293
The data set is described as follows: T-type calcium channel block, whole cell patch clamp in HEK cells (α1G). Particulars: HEK cells, patch clamp, mainly non-inactivated protocol; values above 10 μM shown as 10 μM, below 0.30 μM shown as 0.30 μM; read-out: T-type Calcium Channel Block α1G IC50. The class given is cell-based.

The next data set has as its target hERG K+ channel (Homo sapiens, UniProt Q12809). Briefly: hERG K+ Channel Block. The class given is cell-based.

SMILES strings stand for the structures. Read-outs that look alike come from different tables or passages of the source.

Broadly, the IC50 is the concentration at which inhibition is half-maximal.

T2 sequence (O43497 whole entry): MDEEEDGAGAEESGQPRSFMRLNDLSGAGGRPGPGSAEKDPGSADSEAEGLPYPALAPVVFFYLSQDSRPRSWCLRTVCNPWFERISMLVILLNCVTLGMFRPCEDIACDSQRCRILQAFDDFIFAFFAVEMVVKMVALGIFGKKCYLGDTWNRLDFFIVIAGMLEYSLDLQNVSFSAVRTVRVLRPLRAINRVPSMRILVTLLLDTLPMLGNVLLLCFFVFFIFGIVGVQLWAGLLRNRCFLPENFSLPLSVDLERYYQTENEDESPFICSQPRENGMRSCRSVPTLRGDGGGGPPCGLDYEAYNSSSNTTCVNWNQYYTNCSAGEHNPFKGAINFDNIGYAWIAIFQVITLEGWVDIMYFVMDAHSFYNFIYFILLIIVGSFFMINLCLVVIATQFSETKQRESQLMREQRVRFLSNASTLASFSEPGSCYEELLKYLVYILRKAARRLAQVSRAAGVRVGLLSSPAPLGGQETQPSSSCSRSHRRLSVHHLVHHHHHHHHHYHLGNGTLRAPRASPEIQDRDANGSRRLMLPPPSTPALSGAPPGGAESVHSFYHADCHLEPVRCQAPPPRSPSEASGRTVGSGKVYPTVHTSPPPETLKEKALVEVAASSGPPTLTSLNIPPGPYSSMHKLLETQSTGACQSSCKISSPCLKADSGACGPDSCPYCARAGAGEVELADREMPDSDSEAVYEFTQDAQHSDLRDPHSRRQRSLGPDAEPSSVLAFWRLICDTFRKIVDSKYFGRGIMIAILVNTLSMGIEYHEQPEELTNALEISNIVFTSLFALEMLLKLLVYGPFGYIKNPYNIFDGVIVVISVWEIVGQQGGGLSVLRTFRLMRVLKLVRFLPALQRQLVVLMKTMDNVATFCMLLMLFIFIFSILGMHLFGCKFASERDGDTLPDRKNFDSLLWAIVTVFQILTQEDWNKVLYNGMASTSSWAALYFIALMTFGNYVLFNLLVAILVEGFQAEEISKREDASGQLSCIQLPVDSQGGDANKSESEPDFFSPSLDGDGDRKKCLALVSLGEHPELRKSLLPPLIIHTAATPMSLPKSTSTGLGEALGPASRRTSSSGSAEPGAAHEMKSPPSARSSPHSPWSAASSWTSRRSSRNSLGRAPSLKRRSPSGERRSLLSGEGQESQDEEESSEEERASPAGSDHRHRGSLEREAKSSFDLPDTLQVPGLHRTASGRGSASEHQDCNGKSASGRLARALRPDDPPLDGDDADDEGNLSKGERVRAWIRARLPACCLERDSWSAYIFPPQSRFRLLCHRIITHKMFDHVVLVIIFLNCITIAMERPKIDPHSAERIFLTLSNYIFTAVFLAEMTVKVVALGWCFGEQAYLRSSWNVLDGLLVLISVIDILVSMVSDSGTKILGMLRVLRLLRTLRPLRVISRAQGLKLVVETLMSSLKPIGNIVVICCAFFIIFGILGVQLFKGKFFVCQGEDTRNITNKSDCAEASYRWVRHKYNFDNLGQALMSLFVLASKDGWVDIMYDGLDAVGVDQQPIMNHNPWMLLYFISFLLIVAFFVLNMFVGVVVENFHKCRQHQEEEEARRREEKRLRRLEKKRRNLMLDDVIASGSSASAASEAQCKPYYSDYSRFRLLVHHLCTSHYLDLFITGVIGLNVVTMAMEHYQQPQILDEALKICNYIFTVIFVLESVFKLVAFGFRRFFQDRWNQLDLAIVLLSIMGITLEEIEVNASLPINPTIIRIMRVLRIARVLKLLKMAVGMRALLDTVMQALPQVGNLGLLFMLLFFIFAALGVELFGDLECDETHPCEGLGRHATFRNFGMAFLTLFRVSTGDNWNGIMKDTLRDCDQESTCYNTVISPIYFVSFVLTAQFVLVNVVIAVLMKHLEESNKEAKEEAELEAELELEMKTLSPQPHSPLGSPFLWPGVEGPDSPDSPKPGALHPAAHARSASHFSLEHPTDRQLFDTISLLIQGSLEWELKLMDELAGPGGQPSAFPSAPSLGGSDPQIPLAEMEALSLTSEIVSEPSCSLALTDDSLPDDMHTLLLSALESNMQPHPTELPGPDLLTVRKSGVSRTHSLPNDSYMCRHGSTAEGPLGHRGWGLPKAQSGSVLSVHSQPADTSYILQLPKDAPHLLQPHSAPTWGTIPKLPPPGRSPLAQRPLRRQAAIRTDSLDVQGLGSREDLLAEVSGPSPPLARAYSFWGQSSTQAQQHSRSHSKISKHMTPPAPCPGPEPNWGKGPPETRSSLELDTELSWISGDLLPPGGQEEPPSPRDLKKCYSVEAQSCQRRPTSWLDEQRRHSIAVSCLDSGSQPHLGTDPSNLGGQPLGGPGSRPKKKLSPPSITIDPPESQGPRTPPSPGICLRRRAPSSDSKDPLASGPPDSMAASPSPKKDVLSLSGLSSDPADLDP
hERG K+ channel, sequence (Q12809 whole entry): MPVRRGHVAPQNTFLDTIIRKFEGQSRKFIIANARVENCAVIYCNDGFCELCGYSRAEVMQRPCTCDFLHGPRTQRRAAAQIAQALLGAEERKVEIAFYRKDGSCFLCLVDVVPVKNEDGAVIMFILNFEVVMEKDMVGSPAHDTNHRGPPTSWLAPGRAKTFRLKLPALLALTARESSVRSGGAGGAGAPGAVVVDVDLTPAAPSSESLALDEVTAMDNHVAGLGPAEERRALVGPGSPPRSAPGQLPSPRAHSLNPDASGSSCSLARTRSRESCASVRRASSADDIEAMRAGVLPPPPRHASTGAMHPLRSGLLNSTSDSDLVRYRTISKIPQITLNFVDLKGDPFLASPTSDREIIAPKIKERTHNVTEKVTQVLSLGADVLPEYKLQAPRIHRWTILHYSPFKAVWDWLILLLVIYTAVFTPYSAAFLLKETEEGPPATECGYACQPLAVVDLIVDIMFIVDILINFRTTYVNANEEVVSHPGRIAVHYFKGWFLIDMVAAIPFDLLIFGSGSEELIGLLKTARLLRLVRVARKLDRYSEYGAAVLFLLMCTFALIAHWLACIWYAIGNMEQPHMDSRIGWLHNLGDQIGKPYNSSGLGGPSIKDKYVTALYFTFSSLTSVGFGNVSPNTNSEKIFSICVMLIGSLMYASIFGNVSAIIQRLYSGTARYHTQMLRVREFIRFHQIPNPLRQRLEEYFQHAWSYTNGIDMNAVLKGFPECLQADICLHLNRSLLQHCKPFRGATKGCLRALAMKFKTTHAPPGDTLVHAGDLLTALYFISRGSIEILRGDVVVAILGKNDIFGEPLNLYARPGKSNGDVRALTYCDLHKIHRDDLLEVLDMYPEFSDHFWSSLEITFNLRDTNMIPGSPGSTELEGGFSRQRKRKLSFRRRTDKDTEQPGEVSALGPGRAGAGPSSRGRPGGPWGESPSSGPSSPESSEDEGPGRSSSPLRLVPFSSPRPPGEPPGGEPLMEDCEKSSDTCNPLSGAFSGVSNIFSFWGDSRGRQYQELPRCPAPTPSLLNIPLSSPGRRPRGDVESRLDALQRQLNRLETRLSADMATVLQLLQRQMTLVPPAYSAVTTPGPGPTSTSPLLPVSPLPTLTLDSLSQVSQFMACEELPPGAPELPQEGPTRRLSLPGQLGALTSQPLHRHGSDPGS

As to `CC(C)(C)NC(=O)CN1CCC(CNC(=O)c2cc(F)cc(F)c2)CC1` [Compound 365, N-((1-(2-(tert-butylamino)-2-oxoethyl)piperidin-4-yl)methyl)-3,5-difluorobenzamide], the IC50 came to 560 nM in data set [1] and 800 nM in data set [3]. In data set [2], the “percentage of time in seizure activity compared to both baseline and vehicle” value is listed as “significant decrease”.
In the case of `COc1cc(F)cc(C(=O)NCC2CCN(CCNC(=O)C(C)(C)C(F)(F)F)CC2)c1` [Compound 490, 3-fluoro-5-methoxy-N-((1-(2-(3,3,3-trifluoro-2,2-dimethylpropanamido)ethyl)piperidin-4-yl)methyl)benzamide], the concentration for half-maximal inhibition (IC50) in data set [1] is 150 nM; against hERG K+ channel, 10900 nM; in data set [3], less than 300 nM.
On to `CN(C(=O)CN1CCC(CNC(=O)c2cc(Cl)cc(Cl)c2)CC1)C(C)(C)C` [Compound 552, N-((1-(2-(tert-butyl(methyl)amino)-2-oxoethyl)piperidin-4-yl)methyl)-3,5-dichlorobenzamide], for which the values for the IC50 (in data set [1]; against hERG K+ channel; in data set [3]) were 60 nM, 1800 nM and less than 300 nM, respectively.
On the same counts, the results for `COc1cc(OC)cc(C(=O)NCC2CCN(CCNC(=O)C3(C(F)(F)F)CC3)CC2)c1` [Compound 500, 3,5-dimethoxy-N-((1-(2-(1-(trifluoromethyl)cyclopropanecarbox-amido)ethyl)piperidin-4-yl)methyl) benzamide] are 180 nM, 5500 nM and less than 300 nM.
On the same counts, the results for `O=C(NCC1CCN(CCNC(=O)C2(C(F)(F)F)CC2)CC1)c1cccc(C(F)(F)F)c1` [Compound 473, 3-(trifluoromethyl)-N-((1-(2-(1-(trifluoromethyl)cyclopropanecarbox-amido)ethyl)piperidin-4-yl)methyl) benzamide] are 130 nM, 2200 nM and 680 nM.
Regarding `Cc1cc(F)cc(C(=O)NCC2CCN(CC(=O)NC3(C)CCC3)CC2)c1` [Compound 476, 3-fluoro-5-methyl-N-((1-(2-(1-mtrhylcyclobutylamino)-2-oxoethyl)piperidin-4-yl)methyl) benzamide], the IC50 in data set [1] is 140 nM; on hERG K+ channel (human), no less than 16600 nM; in data set [3], less than 300 nM.
`CN(C(=O)CN1CCC(CNC(=O)c2cccc(Cl)c2)CC1)C(C)(C)C` [Compound 543, N-((1-(2-(tert-butyl(methyl)amino)-2-oxoethyl)piperidin-4-yl)methyl)-3-chlorobenzamide]: the IC50 in data set [1] was 410 nM; at hERG K+ channel, 5200 nM; in data set [3] it was 580 nM.
In the same order, the values of `O=C(CC1CCN(CC2(NS(=O)(=O)C3CC3)CCCC2)CC1)Nc1cc(C(F)(F)F)cc(C(F)(F)F)c1` [Compound 179, N-(3,5-bis(trifluoromethyl)phenyl)-2-(1-((1-(cyclopropanesulfonamido)cyclopentyl)methyl)piperidin-4-yl) acetamide] are 80 nM, 330 nM and 2 nM.
On the same counts, the results for `CC(C)(NC(=O)CN1CCC(CNC(=O)c2cc(F)cc(Cl)c2)CC1)C(F)(F)F` [Compound 461, 3-chloro-5-fluoro-N-((1-(2-oxo-2-(1,1,1-trifluoro-2-methylpropan-2-ylamino)ethyl)piperidin-4-yl)methyl)benzamide] are 20 nM, 7400 nM and less than 300 nM.
`COc1cc(OC)cc(C(=O)NCC2CCN(CC(=O)NC3(C)CCC3)CC2)c1` [Compound 478, 3,5-dimethoxy-N-((1-(2-(1-methylcyclobutylamino)-2-oxoethyl)piperidin-4-yl)methyl) benzamide]: the IC50 in data set [1] is 110 nM; against hERG K+ channel (human), no less than 16600 nM; in data set [3], less than 300 nM.
With `O=C(NCC1CCN(CC(=O)N2CCC[C@H]2C(F)(F)F)CC1)c1cc(F)cc(Cl)c1` [Compound 470, (S)-3-chloro-5-fluoro-N-((1-(2-oxo-2-(2-(trifluoromethyl)pyrrolidin-1-yl)ethyl)piperidin-4-yl)methyl)benzamide], the results for the IC50 (in data set [1]; at hERG K+ channel; in data set [3]) were 70 nM, 2600 nM and less than 300 nM, respectively.
On the same counts, the results for `O=C(NCC1CCN(CC(=O)N2CCC[C@H]2C(F)(F)F)CC1)c1cccc(Cl)c1` [Compound 469, (S)-3-chloro-N-((1-(2-oxo-2-(2-(trifluoromethyl)pyrrolidin-1-yl)ethyl)piperidin-4-yl)methyl)benzamide] are 120 nM, 9500 nM and less than 300 nM.
Consider `Cc1cc(F)cc(C(=O)NCC2CCN(CC(=O)NC(C)(C)C)CC2)c1` [Compound 363, N-((1-(2-(tert-buylamino)-2-oxoethyl)piperidin-4-yl)methyl)-3-fluoro-5-methylbenzamide], for which the figures for the IC50 (in data set [1]; at hERG K+ channel (human); in data set [3]) were 200 nM, no less than 8300 nM and less than 300 nM, respectively.
As for `CC(C)(NC(=O)CN1CCC(CNC(=O)c2cccc(OC(F)(F)F)c2)CC1)C(F)(F)F` [Compound 462, N-((1-(2-oxo-2-(1,1,1-trifluoro-2-methylpropan-2-ylamino)ethyl)piperidin-4-yl)methyl)-3-(trifluoromethoxy) benzamide], the IC50 in data set [1] is 30 nM; at hERG K+ channel, 4100 nM; in data set [3], less than 300 nM.
On the same counts, the results for `NC1(CN2CCC(CC(=O)Nc3cc(C(F)(F)F)cc(C(F)(F)F)c3)CC2)CCCC1` [Compound 159, 2-(1-((1-aminocyclopentyl)methyl)piperidin-4-yl)-N-(3,5-bis(trifluoromethyl)phenyl)acetamide] are 3360 nM, 1300 nM and 310 nM.
Turning to `CN(C(=O)CN1CCC(CNC(=O)c2cccc(OC(F)(F)F)c2)CC1)C(C)(C)C` [Compound 545, N-((1-(2-(tert-butyl(methyl)amino)-2-oxoethyl)piperidin-4-yl)methyl)-3-(trifluoromethoxy)benzamide], the 50% inhibitory concentration (IC50) in data set [1] was 210 nM; against hERG K+ channel it was 6600 nM; in data set [3], 470 nM.
On to `CC(C)(C)S(=O)(=O)NCCN1CCC(CNC(=O)c2cccc(OC(F)(F)F)c2)CC1` [Compound 574, N-((1-(2-(1,1-dimetylethylsulfonamido)ethyl)piperidin-4-yl)methyl)-3-(trifluoromethoxy)benzamide], for which the results for the IC50 (in data set [1]; at hERG K+ channel; in data set [3]) were 200 nM, 4100 nM and less than 300 nM, respectively.
For the compound `CS(=O)(=O)NC1(CN2CCC(CC(=O)Nc3cc(C(F)(F)F)cc(C(F)(F)F)c3)CC2)CCCC1` [Compound 160, N-(3,5-bis(trifluoromethyl)phenyl)-2-(1-((1-(methylsulfonamido)cyclopentyl)methyl)piperidin-4-yl)acetamide], the values for the IC50 (in data set [1]; at hERG K+ channel; in data set [3]) were 500 nM, 190 nM and 20 nM, respectively.
On the same counts, the results for `Cc1cc(F)cc(C(=O)NCC2CCN(CCNC(=O)C(C)(C)C(F)(F)F)CC2)c1` [Compound 489, 3-fluoro-5-methyl-N-((1-(2-(3,3,3-trifluoro-2,2-dimethylpropanamido)ethyl)piperidin-4-yl)methyl)benzamide] are 120 nM, 8800 nM and 370 nM.
On the same counts, the results for `O=C(CC1CCN(CC(O)C(F)(F)F)CC1)Nc1cc(C(F)(F)F)cc(C(F)(F)F)c1` (stereo not drawn) [Compound 178, N-(3,5-bis(trifluoromethyl)phenyl)-2-(1-(3,3,3-trifluoro-2-hydroxypropyl)piperidin-4-yl)acetamide] are 5100 nM, 1600 nM and 720 nM.

These data come from US8569344B2, “N-piperidinyl acetamide derivatives as calcium channel blockers” (Zalicus Pharmaceuticals Ltd., priority 2008, dated 2013).
